For assay [1], the system named is TMD8 cells (BTG1 KO, WT, rescue, mutated rescues). Conditions: 72 h exposure, 0 or 50 nM, FIG. 3B. The method, then: (§1) TMD8 and SUDHL-4 were grown in Roswell Park Memorial Institute medium, GlutaMAX Supplement ([…], Thermofisher), supplemented with 10% FBS, 1% penicillin G/streptomycin. Cells were grown in incubators at 37 C, in a 5% CO2 atmosphere.
(§2) TMD8 and SUDHL-4 cells expressing cas9 were generated by transduction with lentiV-Cas9-blast virus (Addgene #125592, Massachusetts, USA), and selected with 2.5 μg/ml blasticidin for 7 days. […] Cells were selected with puromycin for 7 days, and GFP expression was evaluated with flow cytometry. BTG1 inactivation was validated by Western Blotting after 1 week. BTG1 rescue cell were derived from TMD8 BTG1 KO cells infected with murine BTG1 cDNA (100% protein homology with human) in a mcherry-HIV-based virus. GFP and mcherry positive cells were sorted on a FACS ARIA™ cell sorter (BD biosciences, San Jose, CA).
(§3) The high affinity MCL-1 specific inhibitor S63845 (Kotschy et al., 2016) was purchased from Selleck Chemical (München, Germany). For in vitro study, it was dissolved in DMSO at a concentration of lmmol/L. DMSO was also used as a vehicle control in the in vitro study. For cell viability assessment, 100 000 cells were seeded in 24 well plate and incubated for 72 h with either S63845 or DMSO. Culture medium was used for further dilutions (typically 5 and 50 nM). For cell viability assessment, cells were stained with Annexin V-APC and propidium iodide, analyzed on a FACS LSRII™ (BD biosciences, San Jose, CA).

For assay [2], the system named is SUDHL-4 cells (BTG1 KO, BTG1 WT). The conditions noted are these: SUDHL-4 BTG1 KO versus BTG1 WT; 72 h exposure; 0 or 50 nM; FIG. 3C. The method, then:
as §1, §2, §3

Like-named read-outs stand apart in the source and are kept apart here.

With `Cc1c(-c2c(-c3ccc(F)o3)sc3ncnc(O[C@H](Cc4ccccc4OCc4ccnn4CC(F)(F)F)C(=O)O)c23)ccc(OCCN2CCN(C)CC2)c1Cl` [S63845], the “Increased sensitivity to MCL-1 inhibitor (proportion of apoptotic cells, Annexin V staining)” value is “abolished by the expression of BTG1 WT” in assay [1] (TMD8 BTG1 KO rescued with BTG1 WT) and “not by the expression of mutated BTG1” in assay [1] (TMD8 BTG1 KO rescued with mutated BTG1 (L26P, G66D or I115V)). Moreover, the “Proportion of apoptotic cells (Annexin V staining)” value in assay [1] (TMD8 BTG1 KO versus BTG1 WT) was “induces significantly more apoptosis”; in assay [2], “confirmed the link between BTG1 inactivation and sensitivity to MCL-1”.

Values taken from US20240401146A1, “METHODS FOR PREDICTING AND IMPROVING THE EFFICACY OF MCL-1 INHIBITOR THERAPY” (INSTITUT NATIONAL DE LA SANTÉ ET DE LA RECHERCHE MÉDICALE, priority 2021, published 2024).
